Data reported in ChEMBL document CHEMBL1143484, “Discovery of 1-amino-4-phenylcyclohexane-1-carboxylic acid and its influence on agonist selectivity between human melanocortin-4 and -1 receptors in linear pentapeptides” (Bioorg Med Chem Lett, 2005).
pEC50, pIC50: −log10 of the molar value. Non-standard residues stand in square brackets, D forms with d. Residues, ends and D or L forms follow the SMILES beside them. *: point of attachment. Butyryl = CCCC(=O)*

Tests used:
[1] = target: T1, Melanocyte-stimulating hormone receptor (Homo sapiens, UniProt Q01726); assay: Concentration (50 uM) required for cAMP accumulation mediated by human Melanocortin 1 receptor in HEK293 cells; assay type: functional, cell-based
Target sequence in this assay (Q01726 whole entry, looked up): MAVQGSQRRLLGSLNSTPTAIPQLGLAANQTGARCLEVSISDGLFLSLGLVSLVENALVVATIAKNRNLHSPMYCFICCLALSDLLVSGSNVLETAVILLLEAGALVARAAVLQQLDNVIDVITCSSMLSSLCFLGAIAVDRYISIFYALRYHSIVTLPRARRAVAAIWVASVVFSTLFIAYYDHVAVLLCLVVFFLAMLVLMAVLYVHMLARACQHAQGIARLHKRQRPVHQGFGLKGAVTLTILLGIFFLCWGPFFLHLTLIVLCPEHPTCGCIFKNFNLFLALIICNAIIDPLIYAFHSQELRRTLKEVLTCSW

[2] = target: T2, Melanocortin receptor 4 (Homo sapiens, UniProt P32245); assay: Effective concentration for cAMP accumulation mediated by human Melanocortin 4 receptor in HEK293 cells; assay type: functional, cell-based
T2 sequence (P32245 whole entry): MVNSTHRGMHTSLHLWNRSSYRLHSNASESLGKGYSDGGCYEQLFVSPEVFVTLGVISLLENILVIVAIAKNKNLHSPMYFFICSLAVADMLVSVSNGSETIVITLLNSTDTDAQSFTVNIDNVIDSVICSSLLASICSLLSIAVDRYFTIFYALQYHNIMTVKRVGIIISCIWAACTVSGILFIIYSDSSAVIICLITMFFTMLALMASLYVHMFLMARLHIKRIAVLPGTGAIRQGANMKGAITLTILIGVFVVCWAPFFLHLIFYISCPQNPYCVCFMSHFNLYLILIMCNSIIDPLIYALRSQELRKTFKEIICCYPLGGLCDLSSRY

[3] = target: T1, Melanocyte-stimulating hormone receptor; assay: Effective concentration required for cAMP accumulation mediated by human Melanocortin 1 receptor in HEK293 cells; assay type: functional, cell-based
Target sequence in this assay (Q01726 whole entry): as the sequence (Q01726 whole entry, looked up) above

[4] = target: Melanocortin receptor 5 (Homo sapiens) (UniProt P33032); assay: Concentration (50 uM) required for cAMP accumulation mediated by human Melanocortin 5 receptor in HEK293 cells; assay type: functional, cell-based
Melanocortin receptor 5 (Homo sapiens), sequence (P33032 whole entry): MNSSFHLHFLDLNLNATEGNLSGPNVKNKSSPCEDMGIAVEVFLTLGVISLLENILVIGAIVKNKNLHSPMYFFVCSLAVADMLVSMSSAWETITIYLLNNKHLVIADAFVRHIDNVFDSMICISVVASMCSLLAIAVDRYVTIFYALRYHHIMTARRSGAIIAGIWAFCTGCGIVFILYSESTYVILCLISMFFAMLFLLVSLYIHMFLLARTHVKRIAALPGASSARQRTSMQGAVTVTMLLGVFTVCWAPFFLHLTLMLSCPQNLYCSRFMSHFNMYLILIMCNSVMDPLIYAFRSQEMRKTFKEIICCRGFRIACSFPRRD

[5] = target: Melanocortin receptor 3 (Homo sapiens) (UniProt P41968); assay: Concentration (50 uM) required for cAMP accumulation mediated by human Melanocortin 3 receptor in HEK293 cells; assay type: functional, cell-based
Melanocortin receptor 3 (Homo sapiens), sequence (P41968 whole entry): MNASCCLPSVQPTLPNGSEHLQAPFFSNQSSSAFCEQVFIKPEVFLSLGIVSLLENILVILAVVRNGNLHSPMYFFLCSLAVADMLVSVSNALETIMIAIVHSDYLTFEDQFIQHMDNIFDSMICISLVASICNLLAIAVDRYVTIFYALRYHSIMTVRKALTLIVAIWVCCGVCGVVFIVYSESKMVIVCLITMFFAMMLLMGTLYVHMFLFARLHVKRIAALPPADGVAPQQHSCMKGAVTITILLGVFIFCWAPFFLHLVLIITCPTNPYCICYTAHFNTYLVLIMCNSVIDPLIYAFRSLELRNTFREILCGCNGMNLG

[6] = target: T1, Melanocyte-stimulating hormone receptor; assay: Binding affinity towards human Melanocortin 1 receptor using radiolabeled NDP-MSH displacement
Target sequence in this assay (Q01726 whole entry): as the sequence (Q01726 whole entry, looked up) above

[7] = target: T2, Melanocortin receptor 4; assay: Binding affinity towards human Melanocortin 4 receptor using radiolabeled NDP-MSH displacement
[8] = target: T2, Melanocortin receptor 4; assay: Concentration (50 uM) required for cAMP accumulation mediated by human Melanocortin 4 receptor in HEK293 cells; assay type: functional, cell-based

Structure (SMILES)	cAMP accumulation at 50 uM [1] [%]	pEC50 [2]	pEC50 [3]	other results
CCCCC(=O)N[C@]1(C(=O)N[C@H](Cc2ccccc2)C(=O)N[C@@H](CCCNC(=N)N)C(=O)N[C@@H](Cc2c[nH]c3ccccc23)C(=O)NCC(N)=O)CC[C@H](c2cccc(OC)c2)CC1		8.70	6.16	
CCCCC(=O)N[C@]1(C(=O)N[C@H](Cc2ccccc2)C(=O)N[C@@H](CCCNC(=N)N)C(=O)N[C@@H](Cc2c[nH]c3ccccc23)C(N)=O)CC[C@H](c2ccccc2)CC1		6.89	5.89	
CCCCC(=O)N[C@]1(C(=O)N[C@H](Cc2ccccc2)C(=O)N[C@@H](CCCN=C(N)N)C(=O)N[C@@H](Cc2c[nH]c3ccccc23)C(=O)NCC(N)=O)CC[C@H](c2ccccc2)CC1	25			Accumulation [4]: 36%; Accumulation [5]: 57%
CCCC(=O)N[C@@H](Cc1c[nH]cn1)C(=O)N[C@H](Cc1ccccc1)C(=O)N[C@@H](CCCN=C(N)N)C(=O)N[C@@H](Cc1c[nH]c2ccccc12)C(=O)NCC(N)=O (Butyryl-H[dF]RWG-NH2)				Accumulation [4]: 0%; Accumulation [5]: 0%
CCCCC(=O)N[C@]1(C(=O)NC(Cc2ccccc2)C(=O)NC(CCCN=C(N)N)C(=O)N[C@@H](Cc2c[nH]c3ccccc23)C(=O)NCC(N)=O)CC[C@@H](c2ccccc2)CC1 (single isomer, unassigned)		7.06	5.89	
CCCCC(=O)N[C@]1(C(=O)N[C@H](Cc2ccccc2)C(=O)N[C@@H](CCCN=C(N)N)C(=O)N[C@@H](Cc2c[nH]c3ccccc23)C(=O)NCC(N)=O)CC[C@H](c2ccc(OCC)cc2)CC1	0			Accumulation [4]: 46%; Accumulation [5]: 28%
CCCCC(=O)N[C@]1(C(=O)N[C@H](Cc2ccccc2)C(=O)N[C@@H](CCCNC(=N)N)C(=O)N[C@@H](Cc2c[nH]c3ccccc23)C(=O)NCC(N)=O)CC[C@H](c2ccc(OC(C)C)cc2)CC1		8.22		
CCCCC(=O)N[C@]1(C(=O)N[C@H](Cc2ccccc2)C(=O)N[C@@H](CCCN=C(N)N)C(=O)N[C@@H](Cc2c[nH]c3ccccc23)C(=O)NCC(N)=O)CC[C@H](c2cc(CCC)cc(CCC)c2)CC1			6.68	Accumulation [8]: 60%
NC(=O)CNC(=O)[C@H](Cc1c[nH]c2ccccc12)NC(=O)[C@H](CCCN=C(N)N)NC(=O)[C@@H](Cc1ccccc1)NC(=O)[C@H]1CC[C@H](c2ccccc2)CC1	60	6.26		
CCCCC(=O)N[C@]1(C(=O)NC(Cc2ccccc2)C(=O)NC(CCCN=C(N)N)C(=O)N[C@@H](Cc2c[nH]c3ccccc23)C(=O)NCC(N)=O)CC[C@H](c2ccc(OC)cc2)CC1 (single isomer, unassigned)	0	8.05		
CCCCC(=O)N[C@]1(C(=O)N[C@H](Cc2ccccc2)C(=O)N[C@@H](CCCNC(=N)N)C(=O)N[C@@H](Cc2c[nH]c3ccccc23)C(=O)NCC(N)=O)CC[C@H](c2ccc(OCC)cc2)CC1		7.89		pIC50 [6]: 5.33; pIC50 [7]: 7.37
CCCCC(=O)N[C@]1(C(=O)N[C@H](Cc2ccccc2)C(=O)N[C@@H](CCCNC(=N)N)C(=O)N[C@@H](Cc2c[nH]c3ccccc23)C(=O)NCC(N)=O)CC[C@H](c2ccc(Cl)cc2)CC1		8.40		
CCCCC(=O)N[C@@]1(C(=O)N[C@H](Cc2ccccc2)C(=O)N[C@@H](CCCN=C(N)N)C(=O)N[C@@H](Cc2c[nH]c3ccccc23)C(=O)NCC(N)=O)CCc2ccccc2C1		7.35	6.08	

Continued, in another order:

cAMP accumulation at 50 uM [1] [%]	pEC50 [2]	pEC50 [3]	Structure (SMILES)	other results
55	8.52		CCCCC(=O)N[C@]1(C(=O)NC(Cc2ccccc2)C(=O)NC(CCCN=C(N)N)C(=O)N[C@@H](Cc2c[nH]c3ccccc23)C(=O)NCC(N)=O)CC[C@H](c2ccc(C)cc2)CC1 (single isomer, unassigned)	
60			CCCCC(=O)N[C@]1(C(=O)N[C@H](Cc2ccccc2)C(=O)N[C@@H](CCCN=C(N)N)C(=O)N[C@@H](Cc2c[nH]c3ccccc23)C(=O)NCC(N)=O)CC[C@H](c2ccc(OC(C)C)cc2)CC1	
	8.70		CCCCC(=O)N[C@]1(C(=O)N[C@H](Cc2ccccc2)C(=O)N[C@@H](CCCNC(=N)N)C(=O)N[C@@H](Cc2c[nH]c3ccccc23)C(=O)NCC(N)=O)CC[C@H](c2ccccc2)CC1	pIC50 [6]: 5.15; pIC50 [7]: 7.89
	8.30	5.89	CCCCC(=O)N[C@]1(C(=O)N[C@H](Cc2ccccc2)C(=O)N[C@@H](CCCNC(=N)N)C(=O)N[C@@H](Cc2c[nH]c3ccccc23)C(=O)NCC(N)=O)CC[C@H](c2ccc(O)cc2)CC1	
45			CCCCC(=O)N[C@]1(C(=O)N[C@H](Cc2ccccc2)C(=O)N[C@@H](CCCN=C(N)N)C(=O)N[C@@H](Cc2c[nH]c3ccccc23)C(=O)NCC(N)=O)CC[C@H](c2ccc(Cl)cc2)CC1	
